Experimental data as given in patent US20250179027A1, “CYCLOALKYL OR HETEROCYCLYL SUBSTITUTED HETEROARYL COMPOUND, AND COMPOSITION AND USE THEREOF” (Shenzhen TargetRx, Inc., priority 2022, published 2025).

Legend:
[1] = target: T1, phosphorylated BTK Y223 in NIH/3T3 BTK C481S cells (Homo sapiens, UniProt Q06187, C481S); assay: Phosphor-BTK(Y223) assay, NIH/3T3 BTK C481S cells; assay type: cell-based; details: phosphorylated BTK Y223, NIH/3T3 BTK C481S cells; read-out: NIH/3T3 BTK-C481S pBTK IC50
T1 construct: expressed in transfected cells; host or cells: NIH/3T3 (mouse fibroblasts) engineered to express BTK C481S
T1 sequence (Q06187 whole entry C481S): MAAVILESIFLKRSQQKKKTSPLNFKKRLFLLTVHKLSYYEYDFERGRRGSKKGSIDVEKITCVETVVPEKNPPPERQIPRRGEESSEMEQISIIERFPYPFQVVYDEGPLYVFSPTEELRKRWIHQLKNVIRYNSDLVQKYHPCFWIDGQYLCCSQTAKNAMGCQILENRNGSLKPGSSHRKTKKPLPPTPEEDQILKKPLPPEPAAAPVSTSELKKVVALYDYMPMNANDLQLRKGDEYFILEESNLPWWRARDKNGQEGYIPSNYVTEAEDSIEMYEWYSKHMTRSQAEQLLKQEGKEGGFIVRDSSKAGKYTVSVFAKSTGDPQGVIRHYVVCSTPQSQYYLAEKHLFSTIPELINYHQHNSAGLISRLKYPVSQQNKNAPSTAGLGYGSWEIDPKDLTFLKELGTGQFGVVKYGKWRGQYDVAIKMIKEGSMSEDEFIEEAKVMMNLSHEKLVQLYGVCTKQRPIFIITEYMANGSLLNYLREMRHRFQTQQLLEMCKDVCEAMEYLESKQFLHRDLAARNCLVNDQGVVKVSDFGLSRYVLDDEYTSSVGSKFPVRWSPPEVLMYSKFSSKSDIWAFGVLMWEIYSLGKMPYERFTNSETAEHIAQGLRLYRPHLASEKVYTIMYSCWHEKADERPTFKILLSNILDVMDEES
Procedure: (§1) The purpose of this assay is to simply, quickly and directly detect the endogenous level of BTK in cells. The specific assay steps are as follows: Day 1: NIH/3T3 BTK WT cells (7.5 k/well) and NIH/3T3 BTK C481S cells (10 k/well) were plated in 96-well plates, respectively, and cultured overnight at 37° C. and 5% CO2.
(§2) • 1. A 3-fold final concentration gradient dilution of the compound was prepared, and 50 μL was added to 100 μL of cell culture; 0.5% DMSO was used as a positive control for cell growth. • 2. The plate was incubated at 37° C., 5% CO2 for 0.5 h. • 3. Na3VO4 with a final concentration of 1 mM was added, and incubated at 37° C. and 5% CO2 for 2 hours. • 4. During the incubation, the following reagents were prepared: 1× added lysis buffer: 3 vol ddH2O+1 vol 4× lysis buffer+100× blocking reagent. p-BTK (Y223) cryptate-antibody and p-BTK (Y223) d2-antibody working solutions: 1 volume of each cryopreserved antibody (stored at −20° C.) was added to 19 times volumes of assay buffer (stored at 4° C.). • 5. After the incubation, the medium was removed and 50 μL of 1× added lysis buffer was added; The mixture was centrifuged at 500 rpm for 30 min at room temperature. • 6. The lysate was mixed well and 16 μL was transferred to a 384-well plate; 1× added lysis buffer was used as a blank control. • 7. 4 μL of pre-mixed working solutions of the two antibodies (cryptate Ab:d2 Ab=1:1) were added and the plate was sealed. • 8. The plate was incubated overnight at room temperature.
(§3) Biotek cytation3.0 microplate reader was used to read the plate at 665 nm and 620 nm, and the ratio of 665/620 nm per well was calculated.
(§4) IC50 was calculated using GraphPad Prism 7.0 software.
(§5) The following nonlinear fitting formula was used to obtain the phosphorylated BTK Y223 IC50 (half phosphorylation inhibitory concentration) of the compounds:
(§6) [formula] • X: Compound concentration log value • Y: Inhibition rate (% inhibition)
(§7) The formula for calculating cell phosphorylation inhibition rate (% inhibition rate) was: […]

[2] = target: T2, phosphorylated BTK Y223 in NIH/3T3 BTK WT cells (Homo sapiens, UniProt Q06187); assay: Phosphor-BTK(Y223) assay, NIH/3T3 BTK WT cells; assay type: cell-based; details: phosphorylated BTK Y223, NIH/3T3 BTK WT cells; read-out: NIH/3T3 BTK-WT pBTK IC50
T2 construct: expressed in transfected cells; host or cells: NIH/3T3 (mouse fibroblasts) engineered to express BTK WT
T2 sequence (Q06187 whole entry): as the sequence (Q06187 whole entry C481S) above, with S481C counted along it
Procedure: as §1, §2, §3, §4, §5, §6, §7

Compound | IC50 [1] | IC50 [2]
COc1ccc(F)cc1C(=O)NCc1ccc(-c2nn(C3CCC(O)C3)c3ncnc(N)c23)cc1 (centres unmarked) [Example 32, N-(4-(4-amino-1-(3-hydroxycyclopentanyl)-1H-pyrazolo[3,4-d]pyrimidin-3-yl)benzyl)-5-fluoro-2-methoxybenzamide] | ≤ 25 nM | ≤ 25 nM
COc1ccc(F)cc1C(=O)NCc1ccc(-c2nn(C3CCC(CO)OC3)c3ncnc(N)c23)cc1 (single isomer, unassigned) [Example 17, N-(4-(4-amino-1-(6-(hydroxymethyl)tetrahydro-2H-pyran-3-yl)-1H-pyrazolo[3,4-d]pyrimidin-3-yl)benzyl)-5-fluoro-2-methoxybenzamide] | 100 to 500 nM | 100 to 500 nM
COc1ccc(F)cc1C(=O)NCc1ccc(-c2nn(C3CCCC(C)(O)C3)c3ncnc(N)c23)cc1 (single isomer, unassigned) [Example 27, N-(4-(4-amino-1-(3-hydroxy-3-methylcyclohexanyl)-1H-pyrazolo[3,4-d]pyrimidin-3-yl)benzyl)-5-fluoro-2-methoxybenzamide] | 25 to 50 nM | ≤ 25 nM
COc1ccc(F)cc1C(=O)NCc1ccc(-c2nn([C@@H]3C=C[C@@H](O)C3)c3ncnc(N)c23)cc1 (single isomer, unassigned) [Example 38, trans-N-(4-(4-amino-1-(4-hydroxycyclopent-2-en-1-yl)-1H-pyrazolo[3,4-d]pyrimidin-3-yl)benzyl)-5-fluoro-2-methoxybenzamide] | 25 to 50 nM | ≤ 25 nM
COc1ccc(F)cc1C(=O)NCc1ccc(-c2nc(C3CCCC(O)C3)n3ccnc(N)c23)cc1 (single isomer, unassigned) [Example 21, N-(4-(8-amino-3-(3-hydroxycyclohexanyl)imidazo[1,5-a]pyrazin-1-yl)benzyl)-5-fluoro-2-methoxybenzamide] | 50 to 100 nM | 25 to 50 nM
COc1ccc(F)cc1C(=O)NCc1ccc(-c2nn(C3CCC(CO)OC3)c(N)c2C(N)=O)cc1 (single isomer, unassigned) [Example 14, 5-amino-3-(4-((5-fluoro-2-methoxybenzamido)methyl)phenyl)-1-(6-(hydroxymethyl)tetrahydro-2H-pyran-3-yl)-1H-pyrazole-4-carboxamide] | 100 to 500 nM | 50 to 100 nM
COc1ccc(F)cc1C(=O)NCc1ccc(-c2nn([C@H]3CCC[C@H](O)C3)c3ncnc(N)c23)cc1 (racemic) [Example 9, trans-N-(4-(4-amino-1-(3-hydroxycyclohexanyl)-1H-pyrazolo[3,4-d]pyrimidin-3-yl)benzyl)-5-fluoro-2-methoxybenzamide] | ≤ 25 nM | ≤ 25 nM
COc1ccc(F)cc1C(=O)NCc1ccc(-c2nn([C@@H]3C=C[C@@H](O)C3)c3ncnc(N)c23)cc1 (single isomer, unassigned) [Example 50, trans-N-(4-(4-amino-1-(4-hydroxycyclopent-2-en-1-yl)-1H-pyrazolo[3,4-d]pyrimidin-3-yl)benzyl)-5-fluoro-2-methoxybenzamide] | 25 to 50 nM | ≤ 25 nM
COc1ccc(F)cc1C(=O)NCc1ccc(-c2nn(C3CCCC(C)(O)C3)c3ncnc(N)c23)cc1 (single isomer, unassigned) [Example 25, N-(4-(4-amino-1-(3-hydroxy-3-methylcyclohexanyl)-1H-pyrazolo[3,4-d]pyrimidin-3-yl)benzyl)-5-fluoro-2-methoxybenzamide] | 25 to 50 nM | 25 to 50 nM
COc1ccc(F)cc1C(=O)NCc1ccc(-c2nn(C3CCCC(C)(O)C3)c3ncnc(N)c23)cc1 (single isomer, unassigned) [Example 26, N-(4-(4-amino-1-(3-hydroxy-3-methylcyclohexanyl)-1H-pyrazolo[3,4-d]pyrimidin-3-yl)benzyl)-5-fluoro-2-methoxybenzamide] | 50 to 100 nM | 25 to 50 nM
COc1ccc(F)cc1C(=O)NCc1ccc(-c2nn(C3CCC(CO)OC3)c3c(=O)[nH]nc(N)c23)cc1 (centres unmarked) [Example 43, N-(4-(4-amino-1-(6-(hydroxymethyl)tetrahydro-2H-pyran-3-yl)-7-oxo-6,7-dihydro-1H-pyrazolo[3,4-d]pyridazin-3-yl)benzyl)-5-fluoro-2-methoxybenzamide] | 100 to 500 nM | 100 to 500 nM
COc1ccc(F)cc1C(=O)NCc1ccc(-c2nn([C@H]3CC[C@H](O)CC3)c3c(=O)[nH]nc(N)c23)cc1 [Example 40, trans-N-(4-(4-amino-1-((1R,4R)-4-hydroxycyclohexanyl)-7-oxo-6,7-dihydro-1H-pyrazolo[3,4-d]pyridazin-3-yl)benzyl)-5-fluoro-2-methoxybenzamide] | 50 to 100 nM | 25 to 50 nM
COc1ccc(F)cc1C(=O)NCc1ccc(-c2nn(C3CCC(CO)OC3)c(N)c2C(N)=O)cc1 (single isomer, unassigned) [Example 13, 5-amino-3-(4-((5-fluoro-2-methoxybenzamido)methyl)phenyl)-1-(6-(hydroxymethyl)tetrahydro-2H-pyran-3-yl)-1H-pyrazole-4-carboxamide] | 100 to 500 nM | 50 to 100 nM
COc1ccc(F)cc1C(=O)NCc1ccc(-c2cc(C3CCC(CO)OC3)n3ncnc(N)c23)cc1 (single isomer, unassigned) [Example 62, N-(4-(4-amino-7-(6-(hydroxymethyl)tetrahydro-2H-pyran-3-yl)pyrrolo[2,1-f][1,2,4]triazin-5-yl)benzyl)-5-fluoro-2-methoxybenzamide] | 25 to 50 nM | ≤ 25 nM
COc1ccc(F)cc1C(=O)NCc1ccc(-n2cc(C3CCC(CO)OC3)c3ncnc(N)c32)cc1 (single isomer, unassigned) [Example 52, N-(4-(4-amino-7-(6-(hydroxymethyl)tetrahydro-2H-pyran-3-yl)-5H-pyrrolo[3,2-d]pyrimidin-5-yl)benzyl)-5-fluoro-2-methoxybenzamide] | 100 to 500 nM | 50 to 100 nM
COc1ccc(F)cc1C(=O)NCc1ccc(-c2nn(C3CCC(CO)OC3)c3ncnc(N)c23)cc1 (single isomer, unassigned) [Example 19, N-(4-(4-amino-1-(6-(hydroxymethyl)tetrahydro-2H-pyran-3-yl)-1H-pyrazolo[3,4-d]pyrimidin-3-yl)benzyl)-5-fluoro-2-methoxybenzamide] | 50 to 100 nM | 25 to 50 nM
COc1ccc(F)cc1C(=O)NCc1ccc(-c2nn(C3CCC(CO)OC3)c3ncnc(N)c23)cc1 (single isomer, unassigned) [Example 16, N-(4-(4-amino-1-(6-(hydroxymethyl)tetrahydro-2H-pyran-3-yl)-1H-pyrazolo[3,4-d]pyrimidin-3-yl)benzyl)-5-fluoro-2-methoxybenzamide] | 100 to 500 nM | 50 to 100 nM
COc1ccc(F)cc1C(=O)NCc1ccc(-c2nn(C3CCC(CO)OC3)c(N)c2C(N)=O)cc1 (centres unmarked) [Example 12, 5-amino-3-(4-((5-fluoro-2-methoxybenzamido)methyl)phenyl)-1-(6-(hydroxymethyl)tetrahydro-2H-pyran-3-yl)-1H-pyrazole-4-carboxamide] | 100 to 500 nM | 100 to 500 nM
COc1ccc(F)cc1C(=O)NCc1ccc(-c2nn(C3CCCC(O)C3)c3c(=O)[nH]nc(N)c23)cc1 (centres unmarked) [Example 44, N-(4-(4-amino-1-(3-hydroxycyclohexanyl)-7-oxo-6,7-dihydro-1H-pyrazolo[3,4-d]pyridazin-3-yl)benzyl)-5-fluoro-2-methoxybenzamide] | 100 to 500 nM | 50 to 100 nM
COc1ccc(F)cc1C(=O)NCc1ccc(-c2nn([C@@H]3C=C[C@@H](O)C3)c3ncnc(N)c23)cc1 (single isomer, unassigned) [Example 37, trans-N-(4-(4-amino-1-(4-hydroxycyclopent-2-en-1-yl)-1H-pyrazolo[3,4-d]pyrimidin-3-yl)benzyl)-5-fluoro-2-methoxybenzamide] | 50 to 100 nM | 25 to 50 nM
COc1ccc(F)cc1C(=O)NCc1ccc(-c2nn(C3CCC(CO)OC3)c3c(=O)[nH]nc(N)c23)cc1 (single isomer, unassigned) [Example 48, N-(4-(4-amino-1-(6-(hydroxymethyl)tetrahydro-2H-pyran-3-yl)-7-oxo-6,7-dihydro-1H-pyrazolo[3,4-d]pyridazin-3-yl)benzyl)-5-fluoro-2-methoxybenzamide] |  | 100 to 500 nM
